Measurements: US8476197B2, “Aminopropenoates as fungicides” (priority 2009, dated 2013)
Like-named read-outs stand apart in the source and are kept apart here. Marks after values point to notes of the source that are not given here.

| Compound | Log P (pH 2.7) | also measured |
| --- | --- | --- |
| CCOC(=O)C(C#N)=C(NC1CC2CCC1C2)c1cccnc1Cl (centres unmarked) [Compound 1081] | 3.7^[a] |  |
| CCOC(=O)C(C#N)=C(NC1CC2CCC1C2)c1cccnc1Cl (centres unmarked) [Compound 1082] | 3.74^[a] |  |
| CCOC(=O)C(C#N)=C(NC1C2CCCCC21)c1cccnc1Cl (centres unmarked) [Compound 1083] | 3.73^[a] |  |
| COC(=O)C(C#N)=C(NC1CCCC2CCCCC21)c1cccnc1Cl (centres unmarked) [Compound 1084] | 4.25^[a] |  |
| CCOC(=O)C(C#N)=C(NC[Si](C)(C)C)c1cccnc1Cl [Compound 1085] |  | Log P (pH 2.3): 3.59; Log P (pH 7.5): 3.46 |
| CCOC(=O)C(C#N)=C(NC(C(=O)NC)c1ccccc1)c1cccnc1Cl (centres unmarked) [Compound 1087] | 2.43^[a] |  |
| C#CC1(NC(=C(C#N)C(=O)OC)c2cccnc2Cl)CCCCC1 [Compound 1088] | 2.99^[a] |  |
| CCOC(=O)C(C#N)=C(NC(C)(C)C#Cc1ccc(C#N)cc1)c1sccc1Br [Compound 1089] | 4.16^[a] |  |
| CCOC(=O)C(C#N)=C(NC(C)(C)C#Cc1ccc(C#N)cc1)c1cn(C)nc1C(F)F [Compound 1090] | 3.37^[a] |  |
| CCOC(=O)C(C#N)=C(NC(C)(C)C#Cc1ccc(C#N)cc1)c1sccc1C(F)(F)F [Compound 1091] | 4.24^[a] |  |
| COC(=O)C(C#N)=C(NC(C)(C)C#Cc1ccc(C#N)cc1)c1sc(C)nc1C(F)(F)F [Compound 1092] | 3.78^[a] |  |
| CCOC(=O)C(C#N)=C(NC(C)(C)C#Cc1ccc(C#N)cc1)c1sc(C)nc1C(F)(F)F [Compound 1093] | 4.04^[a] |  |
| CCOC(=O)C(C#N)=C(NC(C)(C)C#Cc1ccc(C#N)cc1)c1ccsc1Br [Compound 1094] | 4.21^[a] |  |
| COC(=O)C(C#N)=C(NC(C)(C)C#Cc1ccc(C)cc1)c1sc(C)nc1C(F)(F)F [Compound 1095] | 4.51^[a] |  |
| CCOC(=O)C(C#N)=C(NC(C)(C)C#Cc1ccc(C)cc1)c1sccc1Br [Compound 1096] | 5.05^[a] |  |
| CCOC(=O)C(C#N)=C(NC(C)(C)C#Cc1ccc(C)cc1)c1cn(C)nc1C(F)F [Compound 1097] | 4.11^[a] |  |

| Compound | Log P (pH 2.7) | also measured |
| --- | --- | --- |
| CCOC(=O)C(C#N)=C(NC(C)(C)C#Cc1ccc(C)cc1)c1sc(C)nc1C(F)(F)F [Compound 1098] | 4.92^[a] |  |
| CCOC(=O)C(C#N)=C(NC(C)(C)C#CCOC)c1sccc1C(F)(F)F [Compound 1099] | 3.55^[a] |  |
| COCC#CC(C)(C)NC(=C(C#N)C(=O)OC)c1sc(C)nc1C(F)(F)F [Compound 1100] | 3.06^[a] |  |
| CCOC(=O)C(C#N)=C(NC(C)(C)C#CCOC)c1cn(C)nc1C(F)F [Compound 1101] | 2.73^[a] |  |
| CCOC(=O)C(C#N)=C(NC(C)(C)C#CCOC)c1sc(C)nc1C(F)(F)F [Compound 1102] | 3.42^[a] |  |
| CCOC(=O)C(C#N)=C(NC(C)(C)C=C(Cl)Cl)c1sccc1C(F)(F)F [Compound 1103] | 4.26^[a] |  |
| COC(=O)C(C#N)=C(NC(C)(C)C=C(Cl)Cl)c1sc(C)nc1C(F)(F)F [Compound 1104] | 3.73^[a] |  |
| CCOC(=O)C(C#N)=C(NC(C)(C)C=C(Cl)Cl)c1sccc1Br [Compound 1105] | 4.21^[a] |  |
| CCOC(=O)C(C#N)=C(NC(C)(C)C=C(Cl)Cl)c1cn(C)nc1C(F)F [Compound 1106] | 3.31^[a] |  |
| CCOC(=O)C(C#N)=C(NC(C)COS(C)(=O)=O)c1cccnc1Cl (centres unmarked) [Compound 1107] |  | Log P (pH 7.5): 2.17 |
| CCOC(=O)C(C#N)=C(NC(C)CSC#N)c1cccnc1Cl (centres unmarked) [Compound 1109] |  | Log P (pH 7.5): 2.35 |
| CCOC(=O)C(C#N)=C(NC(C)CON=C(C)c1ccccc1)c1cccnc1Cl (centres unmarked) [Compound 1111] | 3.96^[a] |  |
| CCOC(=O)C(C#N)=C(NC(C)CON=C(C)c1ccccc1)c1cn(C)nc1C(F)F (centres unmarked) [Compound 1112] | 3.83^[a] |  |
| COC(=O)C(C#N)=C(NC1(C(F)(F)F)CCCCC1)c1cccnc1Cl [Compound 1113] | 2.99^[a] |  |
| CCOC(=O)C(C#N)=C(NC(C)C1=NOCCO1)c1cccnc1Cl (centres unmarked) [Compound 1117] | 2.11^[a] |  |
